# Results: US5235843A, “Method and apparatus for analyzing volatile chemical components in a liquid” (The Dow Chemical Company, priority 1991, dated 1993)
# Assay: Enrichment (partitioning from water to air in segmented flow), enrichment factor
# Assay type: physicochemical
# Conditions: calculated enrichment factor
# Excerpt: That is, each enrichment factor is a direct measure of the detection capabilities of the method and apparatus with respect to a specific volatile compound compound.
# Both the detection limit in air and quantitation limit in water will vary depending on the sensitivity of the analytical equipment used. Thus, at any given testing site the sensitivity of the particular gas chromatograph used will determine detection and quantitation limits.
# Without benefit of known enrichment factor for each compound compound present, extrapolation of the quantitation limit (LOQ) for each compound was accomplished by multiplying the signal-to-noise ratio of the test instrument by ten. These quantitation limits are a reflection of both the detector sensitivity (LOD) and what can be referred to as the enrichment factor or magnification of the concentration into the air phase. Thus, an enrichment factor was calculated for each compound as follows: [formula]
# The enrichment factor depends on the volatility, water solubility, and diffusion coefficient of the particular compound.
row,SMILES,EF (air/water)
1,BrC(Br)Br [BROMOFORM],2.0
2,ClC=C(Cl)Cl [TRICHLOROETHYLENE],9.9
3,"CC(Cl)CCl (stereo not drawn) [1,2-DICHLOROPROPANE]",7.7
4,ClC(Cl)Br [BROMODICHLOROMETHANE],7.7
5,ClCCl [METHYLENE CHLORIDE],8.2
6,C=C(Cl)Cl [[…]],12
7,CBr [METHYL BROMIDE],76
8,ClC(Cl)Cl [CHLOROFORM],6.6
9,ClC(Br)Br [CHLORODIBROMOMETHANE],3.7
10,"Cl/C=C/CCl [t-1,3-DICHLOROPROPENE]",7.2
11,Clc1ccccc1 [CHLOROBENZENE],4.0
12,ClC(Cl)=C(Cl)Cl [PERCHLOROETHYLENE],4.8
13,"Cl/C=C\CCl [c-1,3 DICHLOROPROPENE]",3.6
14,"CC(Cl)Cl [1,1-DICHLOROETHANE]",6.7
15,"Cl/C=C/Cl [t-1,2-DICHLOROETHYLENE]",16
16,"ClCCCl [1,2-DICHLOROETHANE]",6.8
17,ClC(Cl)(Cl)Cl [CARBON TETRACHLORIDE],7.7
18,"Clc1ccccc1Cl [1,2-DICHLOROBENZENE]",1.7
19,"CC(Cl)(Cl)Cl [1,1,-TRICHLOROETHANE]",6.8
20,"ClC(Cl)C(Cl)Cl [1,1,2,2-TETRACHLOROETHANE]",2.0
21,"ClCC(Cl)Cl [1,1,2-TRICHLOROETHANE]",3.9
